Reference: patent publication US20050250677A1, “Glycopeptide antibiotic derivatives” (priority 2002, published 2005)
Like-named read-outs stand apart in the source and are kept apart here.

Assays:
[1] = tested on: VZV (wild-type strains); test: Anti-VZV assay (wild-type strains): virus-induced cytopathicity in HEL cell cultures; type: cell-based, varicella-zoster virus; settings: HEL cell cultures
[2] = tested on: HEL cells; settings: anti-VZV table
[3] = tested on: HEL cells; settings: read-out: CC50 (HEL); HEL cells; anti-VZV table
[4] = VZV strain OKA, read-out: EC50 VZV (OKA)
[5] = VZV strain YS, read-out: EC50 VZV (YS)

| SMILES | EC50 [1, 4] [nM] | EC50 [1, 5] [nM] | MTC (HEL) [2] | CC50 [3] [µM] |
| --- | --- | --- | --- | --- |
| CCCCc1ccc(CNCc2c(O)cc3c(c2O)-c2cc(ccc2O)C2NC(=O)C4NC(=O)C5NC(=O)C(Cc6ccc(c(Cl)c6)Oc6cc4cc(c6O)Oc4ccc(cc4Cl)C(O)C(NC2=O)C(=O)NC3C(=O)O)NC(=O)C(N)c2ccc(O)c(c2)Oc2cc(O)cc5c2)cc1 (stereo not drawn) [Compound 136] | 3100 | 4100 | 20 to 50 µM | > 50 |
| CCCCc1ccc(CNCC(=O)N2CCN(Cc3c(O)cc4c(c3O)-c3cc(ccc3O)C3NC(=O)C5NC(=O)C6NC(=O)C(Cc7ccc(c(Cl)c7)Oc7cc5cc(c7O)Oc5ccc(cc5Cl)C(O)C(NC3=O)C(=O)NC4C(=O)O)NC(=O)C(N)c3ccc(O)c(c3)Oc3cc(O)cc6c3)CC2)cc1 (stereo not drawn) [Compound 142] | 20000 | – | 50 µM | > 50 |
| CCCCc1ccc(CNC2C(=O)NC3Cc4ccc(c(Cl)c4)Oc4cc5cc(c4O)Oc4ccc(cc4Cl)C(O)C4NC(=O)C(NC(=O)C5NC(=O)C(NC3=O)c3cc(O)cc(c3)Oc3cc2ccc3O)c2ccc(O)c(c2)-c2c(cc(O)c(CN3CCN(Cc5ccc(-c6ccccc6)cc5)CC3)c2O)C(C(=O)N2CCN(Cc3ccc(-c5ccccc5)cc3)CC2)NC4=O)cc1 (stereo not drawn) [Compound 123] | 2800 | – | ≧5-200 μM | > 50 |
| CN(Cc1ccc(-c2ccccc2)cc1)Cc1c(O)cc2c(c1O)-c1cc(ccc1O)C1NC(=O)C3NC(=O)C4NC(=O)C(Cc5ccc(c(Cl)c5)Oc5cc3cc(c5O)Oc3ccc(cc3Cl)C(O)C(NC1=O)C(=O)NC2C(=O)O)NC(=O)C(N)c1ccc(O)c(c1)Oc1cc(O)cc4c1 (stereo not drawn) [Compound 117] | 2900 | 2700 | ≧5-80 μM | > 50 |
| CCCCCCCCCCNCc1c(O)cc2c(c1O)-c1cc(ccc1O)C1NC(=O)C3NC(=O)C4NC(=O)C(Cc5ccc(c(Cl)c5)Oc5cc3cc(c5O)Oc3ccc(cc3Cl)C(O)C(NC1=O)C(=O)NC2C(=O)NCCCN(C)C)NC(=O)C(NC(=O)C(N)CCCCN)c1ccc(O)c(c1)Oc1cc(O)cc4c1 (stereo not drawn) [Compound 121] | 2300 | 3100 | ≧5-20 μM | 40 |
| CCCCc1ccc(CNC(=O)C2NC(=O)C3NC(=O)C(NC(=O)C4NC(=O)C(CC(N)=O)NC(=O)C(NC(=O)C(CC(C)C)NC)C(O)c5ccc(c(Cl)c5)Oc5cc4cc(c5OC4OC(CO)C(O)C(O)C4OC4CC(C)(N)C(O)C(C)O4)Oc4ccc(cc4)C3OC3CC(C)(N)C(O)C(C)O3)c3ccc(O)c(c3)-c3c(O)cc(O)cc32)cc1 (stereo not drawn) [Compound 76] | 2700 | > 2000 | ≧5-20 μM | 98 |
| CCCCN(CCCC)c1ccc(CNC(=O)C2NC(=O)C3NC(=O)C(NC(=O)C4NC(=O)C5NC(=O)C(Cc6ccc(c(Cl)c6)Oc6cc4cc(c6O)Oc4ccc(cc4Cl)C3O)NC(=O)C(N)c3ccc(O)c(c3)Oc3cc(O)cc5c3)c3ccc(O)c(c3)-c3c(O)cc(O)cc32)cc1 (stereo not drawn) [Compound 137] | 220 | 430 | >5 to 20 µM | 98 |
| NC1C(=O)NC2Cc3ccc(c(Cl)c3)Oc3cc4cc(c3OCc3ccc(-c5ccccc5)cc3)Oc3ccc(cc3Cl)C(O)C3NC(=O)C(NC(=O)C4NC(=O)C(NC2=O)c2cc(O)cc(c2)Oc2cc1ccc2O)c1ccc(O)c(c1)-c1c(O)cc(O)cc1C(C(=O)O)NC3=O (stereo not drawn) [Compound 128] | 1800 | 800 | 20 µM | 48 |
| CNC(=O)C1NC(=O)C2NC(=O)C(NC(=O)C3NC(=O)C4NC(=O)C(Cc5ccc(c(Cl)c5)Oc5cc3cc(c5O)Oc3ccc(cc3Cl)C2O)NC(=O)C(N)c2ccc(O)c(c2)Oc2cc(O)cc4c2)c2ccc(O)c(c2)-c2c(O)cc(O)cc21 (stereo not drawn) [Compound 120] | 9000 | 10000 | ≧20-200 μM | > 200 |
| CCCCCCCNC(=O)C1NC(=O)C2NC(=O)C(NC(=O)C3NC(=O)C(CC(N)=O)NC(=O)C(NC(=O)C(CC(C)C)NC)C(O)c4ccc(c(Cl)c4)Oc4cc3cc(c4OC3OC(CO)C(O)C(O)C3OC3CC(C)(N)C(O)C(C)O3)Oc3ccc(cc3)C2OC2CC(C)(N)C(O)C(C)O2)c2ccc(O)c(c2)-c2c(O)cc(O)cc21 (stereo not drawn) [Compound 77] | 7000 | 5000 | ≧20-50 μM | 129 |
| CCCCc1ccc(CNCC(=O)N2CCN(Cc3c(O)cc4c(c3O)-c3cc(ccc3O)C3NC(=O)C5NC(=O)C6NC(=O)C(Cc7ccc(c(Cl)c7)Oc7cc5cc(c7O)Oc5ccc(cc5Cl)C(O)C(NC3=O)C(=O)NC4C(=O)NC)NC(=O)C(N)c3ccc(O)c(c3)Oc3cc(O)cc6c3)CC2)cc1 (stereo not drawn) [Compound 143] | 2800 | 2600 | ≧20-50 μM | > 50 |
